Results as given in article PMC7519074, “Polar functional group-containing glycolipid CD1d ligands modulate cytokine-biasing responses and prevent experimental colitis” (Scientific Reports, 2020).
In brackets after ≈: the same amount, converted by molar mass. Entries after “also recorded” stand apart in the source; their conditions may differ.

Legend:
DSS-induced colitis [1] = tested on: DSS-induced colitis; parameters: method as in PMID 15674111; settings: cited from earlier work
[2] = Metabolic stability, rat liver microsome; type: in vitro ADME; settings: for half-life: liver microsomes, read-out: metabolic stability (liver microsome, T1/2) rat
mCD1d-Fc fusion protein [3] = target: T1, mCD1d-Fc fusion protein (Mus musculus, UniProt P11609); parameters: method as in PMID 27648599; settings: previously reported; cited from earlier work
T1 construct: Ig (mouse immunoglobulin fusion partner); purchased BD Biosciences
T1 sequence (P11609 22-305 limits assumed): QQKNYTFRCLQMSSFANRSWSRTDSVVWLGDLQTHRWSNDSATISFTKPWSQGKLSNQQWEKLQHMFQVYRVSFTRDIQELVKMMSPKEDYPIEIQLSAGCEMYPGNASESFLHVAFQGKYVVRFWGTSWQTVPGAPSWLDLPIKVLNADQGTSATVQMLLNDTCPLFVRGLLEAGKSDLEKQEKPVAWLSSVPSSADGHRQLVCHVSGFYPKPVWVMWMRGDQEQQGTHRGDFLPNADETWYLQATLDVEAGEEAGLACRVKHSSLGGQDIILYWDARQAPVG
T1 sequence (P01887 21-119 partner): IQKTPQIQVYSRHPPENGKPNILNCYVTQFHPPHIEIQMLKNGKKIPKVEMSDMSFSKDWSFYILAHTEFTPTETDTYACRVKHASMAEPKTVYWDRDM

DSS-induced colitis [4] = assay: DSS-induced colitis model of ulcerative colitis; type: in vivo; settings: for DAI scores (disease activity index) versus PBS control / colon length (colon shortening) versus PBS control: 100 μg/kg ip on day 4, 2.0% DSS day 1-7, read on day 8
Experimental: DSS treatment causes progressive weight loss, diarrhea and colon inflammation with a significant reduction in colon length, which leads to increases in the clinical scores of disease symptoms (DAI: disease activity index). C57BL/6 mice (n = 12 per group) were continuously treated with 2.0% DSS in their drinking water from day 1 to day 7. The mice were injected intraperitoneally with 100 μg/kg of the derivatives or PBS (control) on day 4. On day 8, the DAI scores and colon lengths of the mice administered the derivatives were compared with those of the mice administered PBS (control). […] Colon shortening is a feature of colon inflammation in the DSS-induced model. In the model, the colon length of healthy mice is about 8 cm (DSS (−)), whereas that of mice upon DSS treatment is about 4 cm (DSS + PBS) as shown in Fig. 7b. […] In this study, we selected the intraperitoneal injection as the administration method of lipid ligands, and used DAI scores and colon length to investigate the protective effects of derivatives against colitis. On the other hand, the difference in the administration method of immunomodulators, such as lipid ligands, might have a significant impact on their efficacy[46],[47]. In addition, the cytokine profiles in the colon upon ligand treatment could also provide useful information regarding their efficacy. Further research is currently being conducted into the effects of administration methods on efficacy and the examination of colon cytokine profiles.
The animal experiments using murine DSS model were conducted in accordance with the guidelines of Keio university institutional animal care and use committee. Specific pathogen-free C57BL/6 mice were purchased from Japan Clea (Tokyo, Japan). All mice were housed under specific pathogen-free conditions in microisolator cages in an animal facility, and male mice (7 weeks of age) were used. DSS (dextran sulfate sodium) was added to the water supply provided to the animals at a concentration of 2.0% (wt/vol) for days 1–7. Derivatives 2 and 3 were first dissolved in DMSO at 100 μg/mL and then diluted in PBS solution. The derivatives (100 μg/kg in 200 μL of solution) were injected intraperitoneally on day 4 after the induction of colitis. Control animals received 200 μL of PBS solution containing the same concentration of DMSO. Mice were sacrificed on day 8 after DSS administration. Intestinal tissues were removed and opened longitudinally. The length of the colon was measured after exclusion of cecum. The disease activity index (DAI), defined as stool blood, stool form and weight loss, and the length of the colon were used to analyze the therapeutic benefits of derivatives 2 and 3.

Water solubility = type: physicochemical
[5] = Metabolic stability, human liver microsome; type: in vitro ADME; settings: for half-life: liver microsomes, read-out: metabolic stability (liver microsome, T1/2) human
mouse splenocytes = assay: Cytokine secretion assay using mouse splenocyte; type: cell-based, C57BL/6 mice; parameters: IFN-γ production / IL-4 production / IL-17A production: unit not given here; settings: for IFN-γ production / IL-4 production / IL-17A production: 1 nM ligand, 48 h; for IFN-γ production: Fig. S2a; for IL-4 production: Fig. S2b; for IL-17A production: Fig. S2c; for Relative ratio IL-4/IFN-γ of cytokine production compared to α-GalCer / Relative ratio IL-17A/IFN-γ of cytokine production compared to α-GalCer: 1 nM; for Relative ratio IL-4/IFN-γ of cytokine production compared to α-GalCer: Fig. 5a; for Relative ratio IL-17A/IFN-γ of cytokine production compared to α-GalCer: Fig. 5b; for cytokine polarization in words: from relative ratios, Fig. 5
Experimental: Spleen cell suspensions (from C57BL/6 mice) were prepared in complete medium (RPMI 1,640 media supplemented with 10% FBS and 1% penicillin–streptomycin) and seeded into 96-well plates (6.0 × 10^5 cells/well). Lipid ligands were added, and the mixture were incubated at 37 °C for 48 h. IFN-γ, IL-4 and IL-17A release were measured with an ELISA kit (Affymetrix).

[6] = Plasma pharmacokinetic profile in mice after ip dosing; type: in vivo, C57BL/6J mice; settings: male, C57BL/6, mouse, 100 ug/kg, 100 μg/kg ip, mice n = 6
Experimental: The pharmacokinetic study was approved by The Institutional Animal Care and Use Committee of Ono Pharmaceutical Co., Ltd. and was performed in accordance with the ethics criteria contained in the animal welfare bylaws of the Committee. The pharmacokinetics of 3 were studied following intraperitoneal administration. The 10 μg/mL dosing solution, which contained DMSO/Phosphate buffered saline = 1/9, was administered intraperitoneally to six male C57BL/6 mice (Charles River Laboratories, Japan, Inc.). Blood samples were collected into heparinized syringes at designated times and centrifuged to obtain the plasma samples. The plasma samples were assayed after protein precipitation by acetonitrile/ethanol (70/30, v/v), followed by HPLC/MS/MS analysis. Plasma concentration–time data were analyzed by noncompartmental methods.

mCD1d-Fc fusion protein [7] = target: T1, mCD1d-Fc fusion protein; assay: Antigen presenting cell (APC)-free assay for lipid binding to mCD1d-Fc; IL-2 release by 2E10 NKT hybridoma cells; type: cell-based; parameters: unit not given here; settings: ligand 100 nM; mean ± SEM; Fig. 3c, d
Experimental: NKT hybridoma 2E10 cells were cultured in RPMI-1640 (NACALAI TESQUE, INC) supplemented with 10% fetal bovine serum (FBS; Biowest), and 1% penicillin–streptomycin (Gibco).
For this assay, 96-well microplates (Bio-one 96-well cell culture plate, Greiner) were coated with mouse CD1d:Ig Fusion protein (BD Biosciences) (0.25 μg/well) in PBS at 37 °C for 24 h. […] After washing, 2E10 NKT hybridoma cells (2.5 × 10^5 cells/well) were added and cultured at 37 °C for 48 h. IL-2 release was measured with an ELISA kit (Affymetrix).

[8] = Table S1, dash = below the detection limit (< 5 μM) according to b25

Compound	efficacy in the murine DSS model, in words (DSS-induced colitis [1])	metabolic stability in words [2]	half-life [2] [h]	cytokine production / agonistic activity relative to α-GalCer, in words (mCD1d-Fc fusion protein [3])	DAI scores (disease activity index) versus PBS control (DSS-induced colitis [4])	colon length (colon shortening) versus PBS control (DSS-induced colitis [4])	solubility (Water solubility; [8]) [µM]	half-life [5] [h]	IFN-γ production (mouse splenocytes)	IL-4 production (mouse splenocytes)	IL-17A production (mouse splenocytes)	Relative ratio IL-4/IFN-γ of cytokine production compared to α-GalCer (mouse splenocytes)	Relative ratio IL-17A/IFN-γ of cytokine production compared to α-GalCer (mouse splenocytes)	cytokine polarization in words (mouse splenocytes)	solubility (Water solubility; detection limit 5 μM) [µM]	further results
CCCCCCCCCCCCCCCCCCCCCCCC(=O)N[C@@H](COC1OC(CO)C(O)C(O)C1O)[C@H](O)[C@H](O)CCCCC (stereo partly drawn) [OCH]	effective in the murine DSS model	–	–	–	–	–	–	–	–	–	–	–	–	–	–	–
CCCCCCCCCCCCCC[C@@H](O)[C@@H](O)[C@H](CO[C@H]1O[C@H](CO)[C@H](O)[C@H](O)[C@H]1O)NC(=O)CCCCCCCCCCCNC(=O)CCCCCCCNC(=O)CC [compound 2]	–	resistant to rat microsomal metabolism	1.07	higher levels of cytokine production relative to that caused by α-GalCer	did not significantly alter the DAI scores	significantly prevented the colon shortening	< 5	< 0.25	9,467 ± 362	593 ± 65	5,179 ± 154	3.15 ± 0.46	2.98 ± 0.03	relatively less selective cytokine responses	–	mice died by day 8 (DSS-induced colitis [4]; 100 μg/kg ip on day 4, 2.0% DSS day 1-7, n = 12 per group): Two out of twelve
CCCCCCCCCCCCCC[C@@H](O)[C@@H](O)[C@H](CO[C@H]1O[C@H](CO)[C@H](O)[C@H](O)[C@H]1O)NC(=O)CCCCCCCCCCCNC(=O)c1ccccc1 [compound 3]	–	resistant to rat microsomal metabolism	2.82	higher levels of cytokine production relative to that caused by α-GalCer; also recorded: higher agonistic activity than α-GalCer	significant improvement in the DAI scores	significantly prevented the colon shortening	–	< 0.25	514 ± 79	–	1651 ± 127	10.2 ± 1.6	18.0 ± 1.7	IL-4- and IL-17A-biasing properties	7.2 (≈ 5.62 µg/mL)	Cmax [6]: 92.8 ng/mL; Tmax [6]: 1 h; half-life [6]: 5.2 h; AUC ([6]; ip): 466 ng·h/mL; metabolic stability in words [5]: suboptimal metabolic property for human liver microsome
CCCCCCCCCCCCCCCCCCCCCCCCCC(=O)N[C@@H](CO[C@H]1O[C@H](CO)[C@H](O)[C@H](O)[C@H]1O)[C@H](O)[C@H](O)CCCCCCCCCCCCCC [α-GalCer, α-galactosyl ceramide, reference compound]	effective in the murine DSS model	–	–	–	–	–	< 5	–	12,297 ± 61	247 ± 14	2,258 ± 242	–	–	–	< 5	IL-2 production (mCD1d-Fc fusion protein [7]): 274 ± 53
